Measurements published in PMC2812657 (Biochemical and biophysical research communications, 2009).

Legend:
GSK3α = GSK3α (Homo sapiens, UniProt P49840); test: in vitro kinase profiling assay
GSK3β = GSK3β (Homo sapiens, UniProt P49841); test: in vitro kinase profiling assay; type: biochemical
GSK3β, sequence (P49841 whole entry): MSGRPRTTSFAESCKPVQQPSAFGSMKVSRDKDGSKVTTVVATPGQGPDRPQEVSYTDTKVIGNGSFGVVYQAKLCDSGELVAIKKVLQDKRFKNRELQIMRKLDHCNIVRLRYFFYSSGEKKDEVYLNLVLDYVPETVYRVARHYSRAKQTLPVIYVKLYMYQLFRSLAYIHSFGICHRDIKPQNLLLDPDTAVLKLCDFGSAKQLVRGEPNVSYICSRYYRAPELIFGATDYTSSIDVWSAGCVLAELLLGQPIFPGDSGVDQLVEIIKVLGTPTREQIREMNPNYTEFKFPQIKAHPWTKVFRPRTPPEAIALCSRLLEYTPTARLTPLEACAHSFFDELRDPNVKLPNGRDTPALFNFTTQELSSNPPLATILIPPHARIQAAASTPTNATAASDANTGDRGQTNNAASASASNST

GSK3α, sequence (P49840 2-483): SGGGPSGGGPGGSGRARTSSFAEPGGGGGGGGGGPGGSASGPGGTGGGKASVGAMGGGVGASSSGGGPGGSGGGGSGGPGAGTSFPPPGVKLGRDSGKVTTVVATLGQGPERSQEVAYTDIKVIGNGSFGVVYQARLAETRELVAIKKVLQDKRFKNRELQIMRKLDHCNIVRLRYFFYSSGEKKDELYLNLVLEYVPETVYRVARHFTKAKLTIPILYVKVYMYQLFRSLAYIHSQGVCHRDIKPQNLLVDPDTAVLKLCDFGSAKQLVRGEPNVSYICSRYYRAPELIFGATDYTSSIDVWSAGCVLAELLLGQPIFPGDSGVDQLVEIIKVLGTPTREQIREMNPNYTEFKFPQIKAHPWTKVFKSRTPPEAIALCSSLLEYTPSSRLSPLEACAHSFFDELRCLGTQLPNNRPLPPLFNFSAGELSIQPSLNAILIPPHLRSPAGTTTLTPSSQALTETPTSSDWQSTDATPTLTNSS

IC50 (GSK3α): 0.088 µM
IC50 (GSK3β): 0.41 µM
SMILES: Nc1cccc(-c2cc3c(Oc4cccc(O)c4)ncnc3[nH]2)c1 [TWS119]
